Each block holds one compound with its values, some of them ahead of it.
Legend:
Integrin alpha-4 [1] = target: T1, Integrin alpha-4 (Homo sapiens, UniProt P13612); assay: Displacement of [125I]-(S)-2-((2S,4R)-4-(azetidin-1-yl)-1-(3-iodophenylsulfonyl)pyrrolidine-2-carboxamido)-3-(4-(3,5-dichloroisonicotinamido)phenyl)propanoic acid from VLA4 in human Jurkat cells washed with Hepes buffer by competitive binding assay; assay type: cell-based
T1 sequence (P13612 whole entry): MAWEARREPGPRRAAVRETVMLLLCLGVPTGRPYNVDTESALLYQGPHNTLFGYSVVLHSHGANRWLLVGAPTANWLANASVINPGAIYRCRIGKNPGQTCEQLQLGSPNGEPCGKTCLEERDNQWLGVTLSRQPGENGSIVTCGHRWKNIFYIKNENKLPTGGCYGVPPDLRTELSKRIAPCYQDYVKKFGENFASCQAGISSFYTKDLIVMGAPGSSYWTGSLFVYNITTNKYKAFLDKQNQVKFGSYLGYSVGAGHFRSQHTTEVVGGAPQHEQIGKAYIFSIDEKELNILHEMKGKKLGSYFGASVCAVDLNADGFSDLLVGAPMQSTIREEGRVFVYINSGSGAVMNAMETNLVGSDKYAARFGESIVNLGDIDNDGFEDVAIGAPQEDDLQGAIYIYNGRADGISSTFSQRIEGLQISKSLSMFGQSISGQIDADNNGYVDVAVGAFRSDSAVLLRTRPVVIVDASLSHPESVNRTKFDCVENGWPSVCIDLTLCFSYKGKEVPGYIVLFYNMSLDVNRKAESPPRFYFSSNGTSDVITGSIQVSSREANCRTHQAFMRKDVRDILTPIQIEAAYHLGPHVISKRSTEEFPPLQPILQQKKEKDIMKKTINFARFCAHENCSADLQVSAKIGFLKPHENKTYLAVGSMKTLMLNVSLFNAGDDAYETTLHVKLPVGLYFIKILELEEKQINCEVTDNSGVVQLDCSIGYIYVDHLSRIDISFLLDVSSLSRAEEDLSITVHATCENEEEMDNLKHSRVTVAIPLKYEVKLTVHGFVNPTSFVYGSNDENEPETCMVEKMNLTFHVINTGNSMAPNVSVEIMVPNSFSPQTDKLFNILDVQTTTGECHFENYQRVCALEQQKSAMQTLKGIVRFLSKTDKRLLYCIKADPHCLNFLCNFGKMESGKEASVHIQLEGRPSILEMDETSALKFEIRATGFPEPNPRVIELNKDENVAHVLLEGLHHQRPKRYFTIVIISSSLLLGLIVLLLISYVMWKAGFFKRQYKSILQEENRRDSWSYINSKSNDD

Integrin alpha-4 [2] = target: T1, Integrin alpha-4; assay: Displacement of [125I]-(S)-2-((2S,4R)-4-(azetidin-1-yl)-1-(3-iodophenylsulfonyl)pyrrolidine-2-carboxamido)-3-(4-(3,5-dichloroisonicotinamido)phenyl)propanoic acid from VLA4 in human whole blood by competitive binding assay; assay type: tissue-based
[3] = target: Integrin alpha-4 (Homo sapiens) (UniProt P13612); assay: Binding affinity to human VLA4 at 37 degC after 3 hrs; set-up: concentration or dose not given beside the values
Rattus norvegicus [4] = assay: Ex vivo receptor occupancy at VLA4 in rat at 1 mg/kg, po after 8 hrs by [125I]- -(S)-2-((2S,4R)-4-(azetidin-1-yl)-1-(3-iodophenylsulfonyl)pyrrolidine-2-carboxamido)-3-(4-(3,5-dichloroisonicotinamido)phenyl)propanoic acid competitive binding assay; assay type: functional
Cytochrome P450 3A4 = Cytochrome P450 3A4 (Homo sapiens, UniProt P08684); assay: Inhibition of human CYP3A4; assay type: ADME
Cytochrome P450 3A4, sequence (P08684 whole entry): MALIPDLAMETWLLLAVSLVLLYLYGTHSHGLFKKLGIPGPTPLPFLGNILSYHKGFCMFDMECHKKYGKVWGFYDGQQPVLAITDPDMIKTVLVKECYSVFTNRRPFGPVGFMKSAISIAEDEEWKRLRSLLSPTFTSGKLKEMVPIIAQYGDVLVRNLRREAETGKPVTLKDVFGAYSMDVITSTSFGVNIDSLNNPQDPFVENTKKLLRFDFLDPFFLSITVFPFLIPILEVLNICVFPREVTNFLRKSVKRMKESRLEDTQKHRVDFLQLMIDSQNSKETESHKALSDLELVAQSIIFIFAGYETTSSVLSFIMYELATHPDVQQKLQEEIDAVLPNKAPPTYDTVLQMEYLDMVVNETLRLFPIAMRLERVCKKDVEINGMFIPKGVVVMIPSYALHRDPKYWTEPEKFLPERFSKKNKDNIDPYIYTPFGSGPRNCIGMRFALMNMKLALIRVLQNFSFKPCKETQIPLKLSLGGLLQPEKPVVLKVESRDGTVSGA

[5] = Plasma Clearance in rhesus monkey at 5 mg/kg, po; assay type: ADME, organism-based, Macaca mulatta; set-up: dose 5 mg/kg, route oral
Canis familiaris [6] = assay: Ex vivo receptor occupancy at VLA4 in dog at 5 mg/kg, po after 12 hrs by [125I]- -(S)-2-((2S,4R)-4-(azetidin-1-yl)-1-(3-iodophenylsulfonyl)pyrrolidine-2-carboxamido)-3-(4-(3,5-dichloroisonicotinamido)phenyl)propanoic acid competitive binding assay; assay type: functional, Canis lupus familiaris
Macaca mulatta = species: Macaca mulatta; assay: Inhibition of rhesus monkey VLA4
Canis lupus familiaris = species: Canis lupus familiaris; assay: Inhibition of dog VLA4
[7] = Half life in rhesus monkey at 5 mg/kg, po; assay type: ADME, organism-based, Macaca mulatta; set-up: dose 5 mg/kg, route oral; conditions: in vivo
Rattus norvegicus [8] = assay: Tmin in rat at 5 mg/kg, po; assay type: ADME, organism-based; set-up: dose 5 mg/kg, route oral; conditions: in vivo
Liver microsomes [9] = assay: Metabolic stability in rat liver microsomes after 1 hr; assay type: ADME, Microsome
[10] = Half life in dog at 5 mg/kg, po; assay type: ADME, organism-based, Canis lupus familiaris; set-up: dose 5 mg/kg, route oral; conditions: in vivo
[11] = Plasma Clearance in dog at 5 mg/kg, po; assay type: ADME, organism-based, Canis lupus familiaris; set-up: dose 5 mg/kg, route oral
[12] = target: Integrin alpha-4 (Homo sapiens) (UniProt P13612); assay: Inhibition of human VLA4
Rhesus monkey [13] = assay: Tmin in rhesus monkey at 5 mg/kg, po; assay type: ADME, organism-based, Macaca mulatta; set-up: dose 5 mg/kg, route oral; conditions: in vivo
Rhesus monkey [14] = assay: Ex vivo receptor occupancy at VLA4 in rhesus monkey at 5 mg/kg, po after 8 hrs by [125I]- -(S)-2-((2S,4R)-4-(azetidin-1-yl)-1-(3-iodophenylsulfonyl)pyrrolidine-2-carboxamido)-3-(4-(3,5-dichloroisonicotinamido)phenyl)propanoic acid competitive binding assay; assay type: functional, Macaca mulatta
[15] = Plasma Clearance in rat at 5 mg/kg, po; assay type: ADME, organism-based; set-up: dose 5 mg/kg, route oral
Rattus norvegicus [16] = species: Rattus norvegicus; assay: Inhibition of rat VLA4
[17] = Half life in rat at 5 mg/kg, po; assay type: ADME, organism-based; set-up: dose 5 mg/kg, route oral; conditions: in vivo
Liver microsomes [18] = assay: Metabolic stability in human liver microsomes after 1 hr; assay type: ADME, Microsome
Canis familiaris [19] = assay: Tmin in dog at 5 mg/kg, po; assay type: ADME, organism-based, Canis lupus familiaris; set-up: dose 5 mg/kg, route oral; conditions: in vivo
Rattus norvegicus [20] = assay: Ex vivo receptor occupancy at VLA4 in rat at 5 mg/kg, po after 12 hrs by [125I]- -(S)-2-((2S,4R)-4-(azetidin-1-yl)-1-(3-iodophenylsulfonyl)pyrrolidine-2-carboxamido)-3-(4-(3,5-dichloroisonicotinamido)phenyl)propanoic acid competitive binding assay; assay type: functional
Canis familiaris [21] = assay: Tmin in dog at 0.75 mg/kg, iv; assay type: ADME, organism-based, Canis lupus familiaris; set-up: dose 0.75 mg/kg, route intravenous; conditions: in vivo
Canis familiaris [22] = assay: Ex vivo receptor occupancy at VLA4 in dog at 0.75 mg/kg, iv after 8 hrs by [125I]- -(S)-2-((2S,4R)-4-(azetidin-1-yl)-1-(3-iodophenylsulfonyl)pyrrolidine-2-carboxamido)-3-(4-(3,5-dichloroisonicotinamido)phenyl)propanoic acid competitive binding assay; assay type: functional, Canis lupus familiaris
[23] = Plasma Clearance in rhesus monkey at 0.75 mg/kg, iv; assay type: ADME, organism-based, Macaca mulatta; set-up: dose 0.75 mg/kg, route intravenous
[24] = Plasma Clearance in dog at 0.75 mg/kg, iv; assay type: ADME, organism-based, Canis lupus familiaris; set-up: dose 0.75 mg/kg, route intravenous
Rhesus monkey [25] = assay: Tmin in rhesus monkey at 0.75 mg/kg, iv; assay type: ADME, organism-based, Macaca mulatta; set-up: dose 0.75 mg/kg, route intravenous; conditions: in vivo
Rattus norvegicus [26] = assay: Tmin in rat at 0.5 mg/kg, iv; assay type: ADME, organism-based; set-up: dose 0.5 mg/kg, route intravenous; conditions: in vivo
[27] = Half life in dog at 0.75 mg/kg, iv; assay type: ADME, organism-based, Canis lupus familiaris; set-up: dose 0.75 mg/kg, route intravenous; conditions: in vivo
Rattus norvegicus [28] = assay: Ex vivo receptor occupancy at VLA4 in rat at 0.5 mg/kg, iv after 8 hrs by [125I]- -(S)-2-((2S,4R)-4-(azetidin-1-yl)-1-(3-iodophenylsulfonyl)pyrrolidine-2-carboxamido)-3-(4-(3,5-dichloroisonicotinamido)phenyl)propanoic acid competitive binding assay; assay type: functional
[29] = Half life in rat at 0.5 mg/kg, iv; assay type: ADME, organism-based; set-up: dose 0.5 mg/kg, route intravenous; conditions: in vivo
[30] = Half life in rhesus monkey at 0.75 mg/kg, iv; assay type: ADME, organism-based, Macaca mulatta; set-up: dose 0.75 mg/kg, route intravenous; conditions: in vivo
[31] = Plasma Clearance in rat at 0.5 mg/kg, iv; assay type: ADME, organism-based; set-up: dose 0.5 mg/kg, route intravenous
Rhesus monkey [32] = assay: Ex vivo receptor occupancy at VLA4 in rhesus monkey at 0.75 mg/kg, iv after 8 hrs by [125I]- -(S)-2-((2S,4R)-4-(azetidin-1-yl)-1-(3-iodophenylsulfonyl)pyrrolidine-2-carboxamido)-3-(4-(3,5-dichloroisonicotinamido)phenyl)propanoic acid competitive binding assay; assay type: functional, Macaca mulatta
[33] = target: Integrin alpha-4 (Homo sapiens) (UniProt P13612); assay: Binding affinity to human VLA4 at 37 degC after 1 hr

- IC50 (Integrin alpha-4 [1]): 0.1 nM
- IC50 (Integrin alpha-4 [2]): 0.1 nM
- Activity [3]: 82%
Structure (SMILES): O=C(Nc1ccc(C[C@H](NC(=O)[C@@H]2C[C@@H](NC3CCC3)CN2S(=O)(=O)c2cc(Cl)cc(Cl)c2)C(=O)O)cc1)c1c(Cl)cncc1Cl

- IC50 (Integrin alpha-4 [1]): 0.1 nM
- IC50 (Integrin alpha-4 [2]): 0.2 nM
- Activity [3]: 82%
Structure (SMILES): O=C(Nc1ccc(C[C@H](NC(=O)[C@@H]2C[C@@H](N3CCCC3)CN2S(=O)(=O)c2cc(Cl)cc(Cl)c2)C(=O)O)cc1)c1c(Cl)cncc1Cl

- Tmin (Canis familiaris [21]): 1 h
- IC50 (Integrin alpha-4 [1]): 0.08 nM
- clearance [23]: 33 mL/min/kg
- clearance [24]: 29 mL/min/kg
- IC50 (Integrin alpha-4 [2]): 0.2 nM
- Tmin (Rhesus monkey [25]): 6 h
- Activity [3]: 77%
- Tmin (Rattus norvegicus [26]): 2 h
- half-life [27]: 0.5 h
- half-life [29]: 1 h
- half-life [30]: 1.1 h
- clearance [31]: 65 mL/min/kg
Structure (SMILES): O=C(Nc1ccc(C[C@H](NC(=O)[C@@H]2C[C@@H](N3CCC3)CN2S(=O)(=O)c2cc(Cl)cc(Cl)c2)C(=O)O)cc1)c1c(Cl)cncc1Cl
- Activity (Rattus norvegicus [4]): 46%
- Activity (Canis familiaris [22]): 72%
- Activity (Rattus norvegicus [28]): 64%
- Activity (Rhesus monkey [32]): 87%

- IC50 (Integrin alpha-4 [1]): 0.07 nM
- IC50 (Integrin alpha-4 [2]): 1.5 nM
- Activity [33]: 62%
Structure (SMILES): O=C(Nc1ccc(C[C@H](NC(=O)[C@@H]2CCCN2S(=O)(=O)c2cc(Cl)cc(Cl)c2)C(=O)O)cc1)c1c(Cl)cncc1Cl

- IC50 (Integrin alpha-4 [1]): 0.2 nM
- Activity [33]: 15%
Structure (SMILES): O=C(Nc1ccc(C[C@H](NC(=O)[C@@H]2C[C@H](N3CCC3)CN2S(=O)(=O)c2cc(Cl)cc(Cl)c2)C(=O)O)cc1)c1c(Cl)cncc1Cl

- IC50 (Integrin alpha-4 [1]): 0.11 nM
- IC50 (Integrin alpha-4 [2]): 49 nM
Structure (SMILES): C[C@@]1(C(=O)N[C@@H](Cc2ccc(NC(=O)c3c(Cl)cncc3Cl)cc2)C(=O)O)CCCN1S(=O)(=O)c1cc(Cl)cc(Cl)c1

- IC50 (Integrin alpha-4 [1]): 0.09 nM
- IC50 (Integrin alpha-4 [2]): 0.4 nM
- Activity [33]: 47%
Structure (SMILES): N[C@@H]1C[C@@H](C(=O)N[C@@H](Cc2ccc(NC(=O)c3c(Cl)cncc3Cl)cc2)C(=O)O)N(S(=O)(=O)c2cc(Cl)cc(Cl)c2)C1

The next lines start with the compound.

Structure (SMILES): CCOC(=O)[C@H](Cc1ccc(NC(=O)c2c(Cl)cncc2Cl)cc1)NC(=O)[C@@H]1C[C@@H](N2CCC2)CN1S(=O)(=O)c1cc(Cl)cc(Cl)c1
- Activity (Rattus norvegicus [4]): 62%

Structure (SMILES): CCOC(=O)[C@H](Cc1ccc(NC(=O)c2c(Cl)cncc2Cl)cc1)NC(=O)[C@@H]1C[C@@H](NC2CCC2)CN1S(=O)(=O)c1cc(Cl)cc(Cl)c1
- Activity (Rattus norvegicus [4]): 51%
- IC50 (Cytochrome P450 3A4): < 400 nM

Structure (SMILES): N#Cc1cccc(S(=O)(=O)N2C[C@H](NC3CCC3)C[C@H]2C(=O)N[C@@H](Cc2ccc(NC(=O)c3c(Cl)cncc3Cl)cc2)C(=O)O)c1
- CL/F [5]: 33 mL/min/kg
- Activity (Canis familiaris [6]): 83%
- IC90 (Macaca mulatta): 0.21 nM
- IC90 (Canis lupus familiaris): 0.19 nM
- half-life [7]: 1.1 h
- Tmin (Rattus norvegicus [8]): 0 h
- Activity [3]: 64%
- Stability (Liver microsomes [9]): 39 pmol/mg
- half-life [10]: 0.5 h
- CL/F [11]: 29 mL/min/kg
- IC90 [12]: 0.13 nM
- Tmin (Rhesus monkey [13]): 0 h
- Activity (Rhesus monkey [14]): 88%
- CL/F [15]: 65 mL/min/kg
- IC90 (Rattus norvegicus [16]): 0.4 nM
- half-life [17]: 1 h
- Stability (Liver microsomes [18]): 56 pmol/mg
- Tmin (Canis familiaris [19]): 6 h
- Activity (Rattus norvegicus [20]): 67%

Structure (SMILES): O=C(Nc1ccc(C[C@H](NC(=O)[C@@H]2C[C@@H](N3CCCCC3)CN2S(=O)(=O)c2cc(Cl)cc(Cl)c2)C(=O)O)cc1)c1c(Cl)cncc1Cl
- IC50 (Integrin alpha-4 [1]): 0.09 nM
- IC50 (Integrin alpha-4 [2]): 0.3 nM
- Activity [3]: 89%

Structure (SMILES): CCOC(=O)[C@H](Cc1ccc(NC(=O)c2c(Cl)cncc2Cl)cc1)NC(=O)[C@@H]1C[C@@H](NC2CCC2)CN1S(=O)(=O)c1cccc(C#N)c1
- Activity (Canis familiaris [6]): 97%
- IC50 (Cytochrome P450 3A4): 1700 nM
- Tmin (Rattus norvegicus [8]): 0 h
- Tmin (Rhesus monkey [13]): 0 h
- Activity (Rhesus monkey [14]): 95%
- Tmin (Canis familiaris [19]): 12 h
- Activity (Rattus norvegicus [20]): 77%

— ChEMBL document CHEMBL1136936, “Discovery of N-{N-[(3-cyanophenyl)sulfonyl]-4(R)-cyclobutylamino-(L)-prolyl}-4-[(3',5'-dichloroisonicotinoyl) amino]-(L)-phenylalanine (MK-0668), an extremely potent and orally active antagonist of very late antigen-4” (J Med Chem, 2009)
